The text below walks through data of ChEMBL document CHEMBL5316357, “Discovery of Linvencorvir (RG7907), a Hepatitis B Virus Core Protein Allosteric Modulator, for the Treatment of Chronic HBV Infection” (J Med Chem, 2023).

The test system of one data set is Hepatitis B virus. As to the kind of experiment: Antiviral activity against HBV stably transfected in human HepG2.2.15 cells assessed as reduction of HBV DNA replication incubated for 5 days by q-PCR analysis. It counts as functional, organism-based. Particulars: HepG2 2.2.15, 120 h.
A short description of data set [1]: Cytotoxicity against human HepDE19 cells assessed as reduction in cell viability incubated for 5 days by CCK-8 assay. It counts as functional. Particulars: HepDE19, 120 h, time 5 day. (Tetrazolium dyes change colour on reduction, which living cells bring about.)
A short description of data set [2]: Induction of CYP3A4 mRNA expression level in human hepatocytes at 10 uM incubated for 24 hrs by q-PCR analysis. The format is ADME, cell-based, Hepatocyte.
In data set [3] the target is Voltage-gated inwardly rectifying potassium channel KCNH2 (Homo sapiens, UniProt Q12809). Description: (§1) Inhibition of hERG stably expressed in CHO cells by whole-cell voltage-clamp assay. The format is toxicity, cell-based.
A further data set has as its target hERG (Homo sapiens, UniProt Q12809). The description is as §1. It counts as toxicity, cell-based. Particulars: human, CHO cells stably expressing hERG. In general terms: Block of hERG is tested as a sign of cardiac risk.
Data set [4] can be described thus: Clearance in human liver microsomes at 1 uM measured upto 30 mins in presence of NADPH by LC-MS/MS analysis. It counts as ADME, Microsome. On the technique in general: Liver microsomes are vesicles of endoplasmic reticulum, rich in cytochrome P450 enzymes.

Where only a bound is given, the exact number is not on record here.

The term EC50 denotes the concentration at which the effect is half-maximal. As a reminder, the CC50 is the concentration that lowers cell viability or growth by half. The term IC50 denotes the concentration at which inhibition is half-maximal. Read a low IC50 as inhibition by little substance. One may read the IC20 as the concentration needed for an effect of 20%.

Chain of Voltage-gated inwardly rectifying potassium channel KCNH2 (Q12809 whole entry): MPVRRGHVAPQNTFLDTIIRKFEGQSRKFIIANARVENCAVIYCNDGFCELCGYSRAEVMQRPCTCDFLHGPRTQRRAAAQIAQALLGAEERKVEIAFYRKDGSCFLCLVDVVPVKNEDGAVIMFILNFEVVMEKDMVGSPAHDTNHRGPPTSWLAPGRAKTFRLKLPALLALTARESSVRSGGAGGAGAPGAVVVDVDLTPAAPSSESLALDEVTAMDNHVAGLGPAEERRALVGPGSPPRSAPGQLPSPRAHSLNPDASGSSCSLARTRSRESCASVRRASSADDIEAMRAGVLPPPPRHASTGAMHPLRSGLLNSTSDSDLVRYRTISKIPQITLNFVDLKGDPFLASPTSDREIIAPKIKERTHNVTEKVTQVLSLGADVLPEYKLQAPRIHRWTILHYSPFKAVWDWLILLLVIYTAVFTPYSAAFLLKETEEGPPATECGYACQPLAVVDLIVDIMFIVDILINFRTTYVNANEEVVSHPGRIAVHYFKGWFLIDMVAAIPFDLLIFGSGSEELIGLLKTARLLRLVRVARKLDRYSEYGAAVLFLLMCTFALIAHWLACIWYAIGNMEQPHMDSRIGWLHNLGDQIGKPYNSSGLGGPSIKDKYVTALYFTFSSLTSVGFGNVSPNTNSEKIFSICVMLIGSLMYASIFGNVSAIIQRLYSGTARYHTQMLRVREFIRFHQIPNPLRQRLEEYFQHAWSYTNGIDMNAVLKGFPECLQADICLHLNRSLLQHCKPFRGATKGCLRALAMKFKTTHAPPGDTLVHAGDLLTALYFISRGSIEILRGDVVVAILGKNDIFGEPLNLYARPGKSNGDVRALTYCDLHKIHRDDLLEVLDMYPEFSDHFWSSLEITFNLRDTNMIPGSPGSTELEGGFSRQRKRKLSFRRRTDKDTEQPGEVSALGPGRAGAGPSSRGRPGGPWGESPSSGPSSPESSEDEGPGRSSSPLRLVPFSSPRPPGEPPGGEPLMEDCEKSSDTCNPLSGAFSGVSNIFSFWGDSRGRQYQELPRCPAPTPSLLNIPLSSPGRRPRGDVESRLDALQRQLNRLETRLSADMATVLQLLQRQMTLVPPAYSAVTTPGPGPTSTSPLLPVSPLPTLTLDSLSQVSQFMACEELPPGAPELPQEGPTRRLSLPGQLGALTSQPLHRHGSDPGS
Chain of hERG (Q12809 whole entry): as above

On to `COC(=O)C1=C(CN2CCN3CCCC3C2)NC(c2nccs2)=N[C@H]1c1ccc(F)cc1Cl` (some centres not stated), for which the EC50 in the data set on Hepatitis B virus was greater than 1000 nM.
For `COC(=O)C1=C(CN2CCN3C(=O)NC[C@H]3C2)NC(c2nccs2)=N[C@H]1c1ccc(F)cc1Cl`, in data set [1], the 50% cytotoxic concentration (CC50) came out at 89000 nM. The concentration for a half-maximal effect (EC50) in the data set with Hepatitis B virus turned out to be 150 nM.
Consider `COC(=O)C1=C(CN2CCN3C(=O)N(C4CCC(C(=O)O)CC4)C[C@@H]3C2)NC(c2nccs2)=N[C@H]1c1ccc(F)cc1Cl` (some centres not stated), for which the cytotoxic concentration (CC50) in data set [1] was 70000 nM. In addition, the Activity in data set [2] stood at 0%. Further, the IC50 in data set [3] was greater than 20000 nM. Moreover, the IC20 against hERG is greater than 10000 nM. Besides, the EC50 with Hepatitis B virus is 9 nM. Also, in data set [4], the CLhep predicted at 1 µM was 8.1 mL/min/kg.
Take `COC(=O)C1=C(CN2CCc3c([nH][nH]c3=O)C2)NC(c2nccs2)=N[C@H]1c1ccc(F)cc1Cl`: the CC50 in data set [1] was greater than 100000 nM. The same compound yielded an Activity in data set [2] of 13%. In addition, the EC50 in the data set with Hepatitis B virus was 750 nM.
As to `CCOC(=O)C1=C(CN2C[C@H]3CN(C(C)(C)C)C(=O)N3C[C@H]2C(=O)O)NC(c2nccs2)=N[C@H]1c1ccc(F)cc1Cl`, the CC50 in data set [1] is greater than 100000 nM. The EC50 in the data set on Hepatitis B virus was 62 nM.
Take `COC(=O)C1=C(CN2CCN3C(=O)N(CC4(C(=O)O)CC4)C[C@@H]3C2)NC(c2nccs2)=N[C@H]1c1ccc(F)cc1Cl`: the CC50 in data set [1] was greater than 100000 nM. The compound also came in with an IC50 in data set [3] of 7800 nM. This compound had an IC20 against hERG of 2300 nM. Moreover, in the data set with Hepatitis B virus, the EC50 was found to be 11 nM. The CLhep predicted at 1 µM in data set [4] is 0.3 mL/min/kg.
`COC(=O)C1=C(CN2CCN3C(=O)N(c4ccc(C(=O)O)cc4)C[C@@H]3C2)NC(c2nccs2)=N[C@H]1c1ccc(F)cc1Cl` (single isomer, unassigned): in data set [3], the concentration for half-maximal inhibition (IC50) was greater than 10000 nM. The compound further displayed a concentration for an effect of 20% (IC20) on hERG of 4000 nM. The concentration giving a half-maximal response (EC50) in the data set with Hepatitis B virus turned out to be 2 nM. In data set [4], the CLhep predicted at 1 µM was 0.43 mL/min/kg.
Consider `COC(=O)C1=C(CN2CCN3C(=O)CC[C@@H]3C2)NC(c2nccs2)=N[C@H]1c1ccc(F)cc1Cl`, for which the half-maximal cytotoxic concentration (CC50) in data set [1] was found to be 45000 nM. The same compound gave an Activity in data set [2] of 44%. The EC50 in the data set with Hepatitis B virus is 14 nM.
For the compound `COC(=O)C1=C(CN2CCN3C(=O)OCCC3C2)NC(c2nccs2)=N[C@H]1c1ccc(F)cc1Cl` (some centres not stated), in data set [1], the 50% cytotoxic concentration (CC50) was 62000 nM. In the data set with Hepatitis B virus, the concentration for a half-maximal effect (EC50) amounted to 100 nM.
Consider `COC(=O)C1=C(CN2CCN(C(C)=O)CC2)NC(c2nccs2)=N[C@H]1c1ccc(F)cc1Cl`, for which the half-maximal cytotoxic concentration (CC50) in data set [1] was greater than 100000 nM. The EC50 in the data set with Hepatitis B virus came out at 50 nM.
`CCOC(=O)C1=C(CN2CCN3C(=O)N(CC(C)C(=O)O)C[C@@H]3C2)NC(c2nccs2)=N[C@H]1c1ccc(F)cc1Cl` (some centres not stated): the CC50 in data set [1] was greater than 100000 nM. For the same compound, the Activity in data set [2] is given as 2.4%. In data set [3], the IC50 is greater than 20000 nM. At hERG, this compound returned an IC20 greater than 10000 nM. For the same compound, the concentration for a half-maximal effect (EC50) in the data set with Hepatitis B virus is 16 nM. Moreover, the CLhep predicted at 1 µM in data set [4] is 2.7 mL/min/kg.
With `COC(=O)C1=C(CN2CCN3C(=O)NC[C@@H]3C2)NC(c2nccs2)=N[C@H]1c1ccc(F)cc1Cl`, the CC50 in data set [1] came to 52000 nM. Moreover, the Activity in data set [2] was found to be 17%. Also, the EC50 in the data set with Hepatitis B virus is 2 nM.
Turning to `COC(=O)C1=C(CN2CCN3C(=O)OC[C@H]3C2)NC(c2nccs2)=N[C@H]1c1ccc(F)cc1Cl`, in data set [1], the CC50 worked out at 76000 nM. The half-maximal effective concentration (EC50) with Hepatitis B virus is 23 nM.
In the case of `COC(=O)C1=C(CN2CCN3C(=O)N(c4cccc(C(=O)O)c4)C[C@@H]3C2)NC(c2nccs2)=N[C@H]1c1ccc(F)cc1Cl` (single isomer, unassigned), the CC50 in data set [1] came to 33000 nM. Also, the EC50 in the data set on Hepatitis B virus came to 7 nM. Besides, the CLhep predicted at 1 µM in data set [4] was 0.3 mL/min/kg.
Take `CCOC(=O)C1=C(CN2C[C@H]3CN(C)C(=O)N3C[C@H]2C(=O)O)NC(c2nccs2)=N[C@H]1c1cccc(F)c1Cl`: in data set [1], the CC50 is greater than 100000 nM. Further, in the data set with Hepatitis B virus, the EC50 came to 150 nM.
On to `COC(=O)C1=C(CN2CCN3C(=O)N([C@H]4CC[C@H](C(=O)O)CC4)C[C@@H]3C2)NC(c2nccs2)=N[C@H]1c1ccc(F)cc1Cl`, for which the CC50 in data set [1] amounted to 43000 nM. For the same compound, in the data set with Hepatitis B virus, the EC50 was 9 nM. The CLhep predicted at 1 µM in data set [4] is 5.2 mL/min/kg.
`CCOC(=O)C1=C(CN2C[C@H]3CN(C4CC4)C(=O)N3C[C@@H]2C(=O)O)NC(c2nccs2)=N[C@H]1c1ccc(F)cc1Cl`: the CC50 in data set [1] was greater than 100000 nM. The Activity in data set [2] came out at 6%. In data set [3], the IC50 was greater than 20000 nM. This compound also yielded an IC20 against hERG greater than 10000 nM. Moreover, the concentration giving a half-maximal response (EC50) in the data set with Hepatitis B virus is 2 nM. The CLhep predicted at 1 µM in data set [4] was 2.7 mL/min/kg.
Take `COC(=O)C1=C(CN2CCOC[C@H]2C(=O)O)N=C(c2nccs2)N[C@H]1c1ccc(F)cc1Cl`: in data set [1], the CC50 is greater than 100000 nM. Moreover, the Activity in data set [2] came to 110%. In the data set with Hepatitis B virus, the EC50 is 3 nM.
The like results for `COC(=O)C1=C(CN2CCN3C(=O)OC[C@@H]3C2)NC(c2nccs2)=N[C@H]1c1ccc(F)cc1Cl` were, in that order, 79000 nM, 70% and 3 nM.
For the compound `CCOC(=O)C1=C(CN2CCN3C(=O)N(c4ccccc4C(=O)O)C[C@@H]3C2)NC(c2nccs2)=N[C@H]1c1ccc(F)cc1Cl` (single isomer, unassigned), the EC50 in the data set with Hepatitis B virus was 30 nM. Moreover, in data set [4], the CLhep predicted at 1 µM is 4.4 mL/min/kg.
Take `COC(=O)C1=C(CN2CCN3C(=O)N(C(C)(C)CC(=O)O)C[C@@H]3C2)NC(c2nccs2)=N[C@H]1c1ccc(F)cc1Cl`: in data set [1], the cytotoxic concentration (CC50) is greater than 100000 nM. The EC50 in the data set on Hepatitis B virus is 30 nM. In addition, in data set [4], the CLhep predicted at 1 µM is 2.5 mL/min/kg.
Turning to `COC(=O)C1=C(CN2CCN3C(=O)N([C@H]4C[C@H](C(=O)O)C4)C[C@@H]3C2)NC(c2nccs2)=N[C@H]1c1ccc(F)cc1Cl`, in data set [1], the 50% cytotoxic concentration (CC50) is 43000 nM. Moreover, the EC50 in the data set on Hepatitis B virus came to 34 nM.
Consider `COC(=O)C1=C(CN2CCN3C(=O)N([C@H]4C[C@@H](C(=O)O)C4)C[C@@H]3C2)NC(c2nccs2)=N[C@H]1c1ccc(F)cc1Cl`, for which the 50% cytotoxic concentration (CC50) in data set [1] is greater than 100000 nM. In the data set with Hepatitis B virus, the concentration for a half-maximal effect (EC50) came out at 30 nM. The CLhep predicted at 1 µM in data set [4] is 0.4 mL/min/kg.
Take `COC(=O)C1=C(CN2CCN3C(=O)N(CCC(C)(C)C(=O)O)C[C@@H]3C2)NC(c2nccs2)=N[C@H]1c1ccc(F)cc1Cl`: in data set [1], the cytotoxic concentration (CC50) was greater than 100000 nM. Further, the Activity in data set [2] worked out at 0%. In the data set with Hepatitis B virus, the EC50 is 8 nM. The CLhep predicted at 1 µM in data set [4] is 4.6 mL/min/kg.
Turning to `CCOC(=O)C1=C(CN2C[C@H]3CN(C4CC4)C(=O)N3C[C@H]2C(=O)O)NC(c2nccs2)=N[C@H]1c1ccc(F)cc1Cl`, in data set [1], the CC50 is greater than 100000 nM. Besides, the half-maximal effective concentration (EC50) in the data set with Hepatitis B virus was 145 nM. In addition, the CLhep predicted at 1 µM in data set [4] was 1.7 mL/min/kg.
Turning to `COC(=O)C1=C(CN2CCN3C(=O)COCC3C2)NC(c2nccs2)=N[C@H]1c1ccc(F)cc1Cl` (some centres not stated), in data set [1], the CC50 is 68000 nM. Further, the EC50 with Hepatitis B virus came to 55 nM.
Take `CCOC(=O)C1=C(CN2CCN3C(=O)N(c4ccc(C(=O)O)cc4)C[C@@H]3C2)NC(c2nccs2)=N[C@H]1c1ccc(F)cc1Cl` (single isomer, unassigned): the CC50 in data set [1] is 28000 nM. Moreover, the half-maximal effective concentration (EC50) in the data set with Hepatitis B virus worked out at 2 nM.
With `COC(=O)C1=C(CN2CCN3C(=O)CC[C@H]3C2)NC(c2nccs2)=N[C@H]1c1ccc(F)cc1Cl`, the 50% cytotoxic concentration (CC50) in data set [1] worked out at 71000 nM. Moreover, the EC50 with Hepatitis B virus was determined as 160 nM.
Take `CCOC(=O)C1=C(CN2CCN3C(=O)N(C(C)(C)C(=O)O)C[C@@H]3C2)NC(c2nccs2)=N[C@H]1c1ccc(F)cc1Cl`: in data set [1], the CC50 amounted to 61000 nM. Also, the half-maximal effective concentration (EC50) with Hepatitis B virus came to 200 nM. Also, in data set [4], the CLhep predicted at 1 µM was 1.6 mL/min/kg.
